The target of one assay is HIS-TGFβR2 WT (Homo sapiens (Human), UniProt P37173). Description: HTRF probe displacement assay, HIS-TGFβR2 WT. The assay is classed as binding. As to conditions: 1 nM HIS-TGFβR2 WT, 1 hour at room temperature, read-out: TGFBR2WT IC50. The method, then:
(§1) Compounds were dissolved at 10 mM in dimethylsulfoxide (DMSO) and evaluated at eleven concentrations. IC50 values were derived by non-linear regression analysis.
A general note: In TR-FRET formats the signal depends on donor and acceptor labels being close together.

In another assay the target is HIS-TGFβR1 T204D (Homo sapiens (Human), UniProt P36897, T204D). Description: HTRF probe displacement assay, HIS-TGFβR1 T204D. The assay is classed as binding. The settings on record: 1 nM HIS-TGFβR1 T204D, 1 hour at room temperature, read-out: TGFBR1T204D IC50. The procedure:
as §1

Chain of HIS-TGFβR2 WT (P37173 23-567): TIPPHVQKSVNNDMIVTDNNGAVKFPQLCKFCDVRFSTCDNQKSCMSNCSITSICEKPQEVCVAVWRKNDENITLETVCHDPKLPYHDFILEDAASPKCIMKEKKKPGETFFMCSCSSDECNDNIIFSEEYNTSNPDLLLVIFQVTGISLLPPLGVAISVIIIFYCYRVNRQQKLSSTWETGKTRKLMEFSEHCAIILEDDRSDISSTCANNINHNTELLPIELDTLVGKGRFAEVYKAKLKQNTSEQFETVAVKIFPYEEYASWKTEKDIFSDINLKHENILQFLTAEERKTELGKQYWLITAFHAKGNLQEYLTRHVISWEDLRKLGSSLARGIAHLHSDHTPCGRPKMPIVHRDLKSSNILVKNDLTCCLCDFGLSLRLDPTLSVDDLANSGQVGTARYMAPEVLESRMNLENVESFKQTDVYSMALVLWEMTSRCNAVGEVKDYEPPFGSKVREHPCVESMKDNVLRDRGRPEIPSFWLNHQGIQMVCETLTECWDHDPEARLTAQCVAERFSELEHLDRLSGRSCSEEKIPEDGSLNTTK
Chain of HIS-TGFβR1 T204D (P36897 34-503 T204D): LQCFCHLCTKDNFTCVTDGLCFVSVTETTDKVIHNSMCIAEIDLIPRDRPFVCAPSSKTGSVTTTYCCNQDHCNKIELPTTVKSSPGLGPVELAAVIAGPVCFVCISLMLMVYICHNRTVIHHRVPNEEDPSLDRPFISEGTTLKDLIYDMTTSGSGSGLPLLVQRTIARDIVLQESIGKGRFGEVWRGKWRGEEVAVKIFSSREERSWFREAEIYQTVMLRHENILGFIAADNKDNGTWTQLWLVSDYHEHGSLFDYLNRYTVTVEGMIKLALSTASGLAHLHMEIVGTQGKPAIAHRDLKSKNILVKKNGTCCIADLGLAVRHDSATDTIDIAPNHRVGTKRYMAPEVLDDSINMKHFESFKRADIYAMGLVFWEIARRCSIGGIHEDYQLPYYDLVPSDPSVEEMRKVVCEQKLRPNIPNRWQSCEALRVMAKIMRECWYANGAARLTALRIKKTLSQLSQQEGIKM

In general, IC50 refers to the midpoint of a concentration-inhibition curve. Consider `Cc1nc(-c2ncccc2-c2ccn3nccc3n2)ccc1F` [Compound 137, 5-(5′-fluoro-6′-methyl-[2,2′-bipyridin]-3-yl)pyrazolo[1,5-a]pyrimidine], for which the concentration for half-maximal inhibition (IC50) at HIS-TGFβR2 WT is above 15000 nM; at HIS-TGFβR1 T204D, 8 nM.

`CC(=O)Nc1cccc(-c2ncccc2-c2ccc3ncc(C#N)n3c2)n1` [Compound 45, N-(3′-(3-cyanoimidazo[1,2-a]pyridin-6-yl)-[2,2′-bipyridin]-6-yl)acetamide]: the IC50 on HIS-TGFβR2 WT is above 15000 nM; on HIS-TGFβR1 T204D, 907 nM.

For `Cc1nc(-c2ncccc2-c2ccc3ncc(C#N)n3n2)ccc1F` [Compound 61, 6-(5′-fluoro-6′-methyl-[2,2′-bipyridin]-3-yl)imidazo[1,2-b]pyridazine-3-carbonitrile], the 50% inhibitory concentration (IC50) was above 15000 nM at HIS-TGFβR2 WT and 32 nM on HIS-TGFβR1 T204D.

As to `CNC(=O)c1cnn2ccc(-c3cccnc3-c3cccc(C)n3)nc12` [Compound 127, N-methyl-5-(6′-methyl-[2,2′-bipyridin]-3-yl)pyrazolo[1,5-a]pyrimidine-3-carboxamide], the IC50 was above 15000 nM at HIS-TGFβR2 WT and 128 nM on HIS-TGFβR1 T204D.

As to `O=C(O)c1cnn2ccc(-c3cccnc3-c3cccc(C(F)F)n3)nc12` [Compound 135, 5-(6′-(difluoromethyl)-[2,2′-bipyridin]-3-yl)pyrazolo[1,5-a]pyrimidine-3-carboxylic acid], the values for the IC50 at HIS-TGFβR2 WT and at HIS-TGFβR1 T204D were above 15000 nM and 107 nM, respectively.

Take `Cc1nc(-c2ncccc2-c2ccc3ncnc(N)c3n2)ccc1F` [Compound 103, 6-(5′-fluoro-6′-methyl-[2,2′-bipyridin]-3-yl)pyrido[3,2-d]pyrimidin-4-amine]: the IC50 on HIS-TGFβR2 WT was above 15000 nM; at HIS-TGFβR1 T204D, 4 nM.

As for `Cc1cccc(-c2nc(C(F)(F)F)ccc2-c2ccc3ncc(C#N)n3c2)n1` [Compound 89, 6-(6′-methyl-6-(trifluoromethyl)-[2,2′-bipyridin]-3-yl)imidazo[1,2-a]pyridine-3-carbonitrile], the IC50 at HIS-TGFβR2 WT is above 15000 nM; on HIS-TGFβR1 T204D, 3360 nM.

Take `NC(=O)c1cnc2ccc(-c3cccnc3-c3cccc(Cl)n3)cn12` [Compound 46, 6-(6′-chloro-[2,2′-bipyridin]-3-yl)imidazo[1,2-a]pyridine-3-carboxamide]: the IC50 was above 15000 nM on HIS-TGFβR2 WT and 0.4 nM at HIS-TGFβR1 T204D.

For `N#Cc1cnc2ccc(-c3cccnc3-c3ccc(F)cn3)nn12` [Compound 53, 6-(5′-fluoro-[2,2′-bipyridin]-3-yl)imidazo[1,2-b]pyridazine-3-carbonitrile], the values for the IC50 at HIS-TGFβR2 WT and on HIS-TGFβR1 T204D were above 15000 nM and 605 nM, respectively.

Regarding `Cc1cccc(-c2ncccc2-c2ccn3nccc3n2)n1` [Compound 138, 5-(6′-methyl-[2,2′-bipyridin]-3-yl)pyrazolo[1,5-a]pyrimidine], the half-inhibitory concentration (IC50) is above 15000 nM at HIS-TGFβR2 WT and 5 nM on HIS-TGFβR1 T204D.

On to `Nc1ncnc2ccc(-c3cccnc3-c3cccc(C4CC4)n3)nc12` [Compound 106, 6-(6′-cyclopropyl-[2,2′-bipyridin]-3-yl)pyrido[3,2-d]pyrimidin-4-amine], for which the half-inhibitory concentration (IC50) on HIS-TGFβR2 WT is above 15000 nM; on HIS-TGFβR1 T204D, 4 nM.

In the case of `N#Cc1cnc2ccc(-c3cccnc3-c3cc(F)ccn3)cn12` [Compound 16, 6-(4′-fluoro-[2,2′-bipyridin]-3-yl)imidazo[1,2-a]pyridine-3-carbonitrile], the concentration for half-maximal inhibition (IC50) is above 15000 nM at HIS-TGFβR2 WT and 207 nM on HIS-TGFβR1 T204D.

In the case of `NC(=O)c1cnc2ccc(-c3cccnc3-c3cc(F)ccn3)nn12` [Compound 60, 6-(4′-fluoro-[2,2′-bipyridin]-3-yl)imidazo[1,2-b]pyridazine-3-carboxamide], the 50% inhibitory concentration (IC50) on HIS-TGFβR2 WT was above 15000 nM; at HIS-TGFβR1 T204D, 161 nM.

Regarding `N#Cc1cnc2ccc(-c3cc(F)cnc3-c3cccc(C(F)F)n3)cn12` [Compound 83, 6-(6′-(difluoromethyl)-5-fluoro-[2,2′-bipyridin]-3-yl)imidazo[1,2-a]pyridine-3-carbonitrile], the values for the IC50 on HIS-TGFβR2 WT and at HIS-TGFβR1 T204D were above 15000 nM and 22 nM, respectively.

The values above are taken from patent US9981944B2, “GDF-8 inhibitors” (Rigel Pharmaceuticals, Inc., priority 2015, dated 2018).
